Laboratory results published in ChEMBL document CHEMBL1145313, “Identification of potent and highly selective chiral tri-amine and tetra-amine mu opioid receptors ligands: an example of lead optimization using mixture-based libraries” (Bioorg Med Chem Lett, 2006).

The compounds below were run against Mu-type opioid receptor (Rattus norvegicus, UniProt P33535) (assay: Displacement of [3H]DAMGO from mu opioid receptor in rat brain homogenate).
Mu-type opioid receptor, sequence (P33535 whole entry): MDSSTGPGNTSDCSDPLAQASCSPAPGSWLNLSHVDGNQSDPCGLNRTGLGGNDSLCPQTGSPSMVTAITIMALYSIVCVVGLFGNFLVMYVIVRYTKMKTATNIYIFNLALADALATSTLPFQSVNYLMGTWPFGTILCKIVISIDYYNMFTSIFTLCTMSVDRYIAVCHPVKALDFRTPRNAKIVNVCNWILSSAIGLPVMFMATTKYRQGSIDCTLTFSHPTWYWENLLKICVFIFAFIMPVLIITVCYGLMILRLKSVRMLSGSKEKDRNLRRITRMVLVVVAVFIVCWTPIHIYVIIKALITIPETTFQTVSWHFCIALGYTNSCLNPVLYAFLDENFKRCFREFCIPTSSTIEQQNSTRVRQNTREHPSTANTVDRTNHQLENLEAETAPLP
Assay type: tissue-based
In the case of `CCN[C@H](CN[C@H](CN)Cc1ccc(O)cc1)Cc1ccc(O)cc1`, the IC50 is reported as 344 nM.
`CCN[C@H](CN[C@H](CN[C@H](CN)Cc1ccccc1)Cc1ccc(O)cc1)Cc1ccc(O)cc1` was tested, and the IC50 was 47 nM.
Work on `CCN[C@H](CN[C@H](CN[C@@H](Cc1ccccc1)CN1CCC[C@H]1CN[C@H](CN[C@H](CN)Cc1ccccc1)Cc1ccc(O)cc1)Cc1ccc(O)cc1)Cc1ccc(O)cc1` yielded an IC50 of 27 nM.
In the case of `CCN[C@H](CN[C@H](CN[C@H](CN[C@H](CN[C@@H](Cc1ccc(O)cc1)CN1CCC[C@H]1CN)Cc1ccccc1)Cc1ccccc1)Cc1ccc(O)cc1)Cc1ccc(O)cc1`, the IC50 is reported as 48 nM.
Work on `CCN[C@H](CN[C@H](CN[C@H](CN[C@H](CN[C@@H](Cc1ccc(O)cc1)CN1CCC[C@H]1CN)Cc1ccccc1)Cc1ccc(O)cc1)Cc1ccc(O)cc1)Cc1ccc(O)cc1` yielded an IC50 of 148 nM.
Compound `CCN[C@H](CN[C@H](CN[C@@H](Cc1ccccc1)CN1CCC[C@H]1CN[C@H](CN[C@H](CN)CCSC)Cc1ccc(O)cc1)Cc1ccc(O)cc1)Cc1ccc(O)cc1` has an IC50 of 34 nM.
For `CCN[C@H](CN[C@H](CN[C@H](CN[C@H](CN[C@H](CN[C@H](CN)CCSC)Cc1ccc(O)cc1)Cc1ccccc1)Cc1ccccc1)Cc1ccc(O)cc1)Cc1ccc(O)cc1`, the IC50 was 126 nM.
For `CCN[C@H](CN[C@H](CN[C@@H](Cc1ccc(O)cc1)CN1CCC[C@H]1CN[C@@H](CN[C@H](CN)Cc1ccccc1)[C@@H](C)O)Cc1ccc(O)cc1)Cc1ccc(O)cc1`, the IC50 was 128 nM.
For `CCN[C@H](CN[C@H](CN[C@@H](Cc1ccccc1)CN1CCC[C@H]1CN[C@@H](CN1CCC[C@H]1CN)[C@@H](C)O)Cc1ccc(O)cc1)Cc1ccc(O)cc1`, the IC50 was 15 nM.
Work on `CCN[C@H](CN[C@H](CN[C@H](CN[C@H](CN[C@H](CN[C@H](CN)Cc1ccc(O)cc1)Cc1ccc(O)cc1)Cc1ccccc1)Cc1ccccc1)Cc1ccc(O)cc1)Cc1ccc(O)cc1` yielded an IC50 of 95 nM.
`CCN[C@H](CN[C@H](CN[C@H](CN[C@H](CN[C@@H](CN1CCC[C@H]1CN)[C@@H](C)O)Cc1ccccc1)Cc1ccc(O)cc1)Cc1ccc(O)cc1)Cc1ccc(O)cc1` showed an IC50 of 155 nM.
Work on `CCN[C@H](CN[C@H](CN[C@@H](Cc1ccccc1)CN1CCC[C@H]1CN[C@H](CN[C@H](CN)CO)Cc1ccc(O)cc1)Cc1ccc(O)cc1)Cc1ccc(O)cc1` (stereo in doubt) yielded an IC50 of 67 nM.
`CCN[C@H](CN[C@H](CN[C@@H](Cc1ccccc1)CN1CCC[C@H]1CN[C@H](CN[C@H](CN)CO)Cc1ccc(O)cc1)Cc1ccc(O)cc1)Cc1ccc(O)cc1` (stereo in doubt; 5) gave an IC50 of 19 nM.
Work on `CCN[C@H](CN[C@H](CN[C@@H](Cc1ccc(O)cc1)CN1CCC[C@H]1CN)Cc1ccc(O)cc1)Cc1ccc(O)cc1` yielded an IC50 of 13 nM.
Compound `CCN[C@H](CN[C@H](CN[C@H](CN[C@H](CN[C@H](CN[C@@H](CN)CO)Cc1ccc(O)cc1)Cc1ccccc1)Cc1ccccc1)Cc1ccc(O)cc1)Cc1ccc(O)cc1` has an IC50 of 66 nM.
`CCN[C@H](CN[C@H](CN[C@@H](Cc1ccc(O)cc1)CN1CCC[C@H]1CN[C@H](CN[C@H](CN)CO)Cc1ccc(O)cc1)Cc1ccc(O)cc1)Cc1ccc(O)cc1` was tested, and the IC50 was 89 nM.
Work on `CCN[C@H](CN[C@H](CN[C@@H](Cc1ccccc1)CN1CCC[C@H]1CN[C@H](CN[C@H](CN)Cc1ccc(O)cc1)Cc1ccc(O)cc1)Cc1ccc(O)cc1)Cc1ccc(O)cc1` yielded an IC50 of 27 nM.
For `CCN[C@H](CN[C@H](CN[C@H](CN[C@H](CN[C@H](CN[C@H](CN)Cc1ccccc1)Cc1ccc(O)cc1)Cc1ccccc1)Cc1ccc(O)cc1)Cc1ccc(O)cc1)Cc1ccc(O)cc1`, the IC50 was 258 nM.
`CCN[C@H](CN[C@H](CN[C@@H](Cc1ccccc1)CN1CCC[C@H]1CN[C@@H](CN[C@@H](CN)CO)[C@@H](C)O)Cc1ccc(O)cc1)Cc1ccc(O)cc1` was tested, and the IC50 was 19 nM.
Compound `CCN[C@H](CN[C@H](CN[C@@H](Cc1ccc(O)cc1)CN1CCC[C@H]1CN[C@@H](CN[C@H](CN)Cc1ccc(O)cc1)[C@@H](C)O)Cc1ccc(O)cc1)Cc1ccc(O)cc1` has an IC50 of 61 nM.
In the case of `CCN[C@H](CN[C@H](CN[C@H](CN[C@H](CN[C@@H](CN1CCC[C@H]1CN)[C@@H](C)O)Cc1ccccc1)Cc1ccccc1)Cc1ccc(O)cc1)Cc1ccc(O)cc1`, the IC50 is reported as 82 nM.
`CCN[C@H](CN[C@H](CN[C@H](CN[C@H](CN[C@@H](CN[C@H](CN)Cc1ccc(O)cc1)[C@@H](C)O)Cc1ccccc1)Cc1ccccc1)Cc1ccc(O)cc1)Cc1ccc(O)cc1` gave an IC50 of 78 nM.
With `CCN[C@H](CN[C@H](CN[C@H](CN[C@H](CN[C@H](CN[C@H](CN)Cc1ccc(O)cc1)Cc1ccc(O)cc1)Cc1ccccc1)Cc1ccc(O)cc1)Cc1ccc(O)cc1)Cc1ccc(O)cc1` the IC50 was 261 nM.
`CCN[C@H](CN[C@H](CN[C@@H](Cc1ccc(O)cc1)CN1CCC[C@H]1CN[C@@H](CN1CCC[C@H]1CN)[C@@H](C)O)Cc1ccc(O)cc1)Cc1ccc(O)cc1` was tested, and the IC50 was 41 nM.
In the case of `CCN[C@H](CN[C@H](CN[C@@H](Cc1ccccc1)CN1CCC[C@H]1CN[C@@H](CN[C@H](CN)Cc1ccc(O)cc1)[C@@H](C)O)Cc1ccc(O)cc1)Cc1ccc(O)cc1`, the IC50 is reported as 20 nM.
`CCN[C@H](CN[C@H](CN[C@H](CN[C@H](CN[C@@H](CN[C@@H](CN)CO)[C@@H](C)O)Cc1ccccc1)Cc1ccc(O)cc1)Cc1ccc(O)cc1)Cc1ccc(O)cc1` gave an IC50 of 163 nM.
For `CCN[C@H](CN[C@H](CN[C@H](CN)Cc1ccc(O)cc1)Cc1ccc(O)cc1)Cc1ccc(O)cc1`, the IC50 was 138 nM.
`CCN[C@H](CN[C@H](CN[C@H](CN[C@H](CN[C@@H](CN[C@H](CN)Cc1ccc(O)cc1)[C@@H](C)O)Cc1ccccc1)Cc1ccc(O)cc1)Cc1ccc(O)cc1)Cc1ccc(O)cc1` gave an IC50 of 200 nM.
`CCN[C@H](CN[C@H](CN[C@@H](Cc1ccc(O)cc1)CN1CCC[C@H]1CN[C@@H](CN[C@@H](CN)CO)[C@@H](C)O)Cc1ccc(O)cc1)Cc1ccc(O)cc1` gave an IC50 of 32 nM.
`CCN[C@H](CN[C@H](CN[C@H](CN[C@H](CN[C@H](CN[C@@H](CN)CO)Cc1ccc(O)cc1)Cc1ccccc1)Cc1ccc(O)cc1)Cc1ccc(O)cc1)Cc1ccc(O)cc1` was tested, and the IC50 was 345 nM.
`CCN[C@H](CN[C@H](CN[C@@H](Cc1ccccc1)CN1CCC[C@H]1CN[C@@H](Cc1ccc(O)cc1)CN1CCC[C@H]1CN)Cc1ccc(O)cc1)Cc1ccc(O)cc1` was tested, and the IC50 was 18 nM.
`CCN[C@H](CN[C@H](CN[C@H](CN[C@H](CN[C@@H](CN[C@H](CN)Cc1ccccc1)[C@@H](C)O)Cc1ccccc1)Cc1ccccc1)Cc1ccc(O)cc1)Cc1ccc(O)cc1` showed an IC50 of 108 nM.
Work on `CCN[C@H](CN[C@H](CN[C@H](CN[C@H](CN[C@H](CN[C@H](CN)Cc1ccccc1)Cc1ccc(O)cc1)Cc1ccccc1)Cc1ccccc1)Cc1ccc(O)cc1)Cc1ccc(O)cc1` yielded an IC50 of 176 nM.
For `CCN[C@H](CN[C@H](CN[C@@H](Cc1ccc(O)cc1)CN1CCC[C@H]1CN[C@@H](CN[C@H](CN)CCSC)[C@@H](C)O)Cc1ccc(O)cc1)Cc1ccc(O)cc1`, the IC50 was 112 nM.
Compound `CCN[C@H](CN[C@H](CN[C@@H](Cc1ccccc1)CN1CCC[C@H]1CN[C@@H](CN[C@H](CN)Cc1ccccc1)[C@@H](C)O)Cc1ccc(O)cc1)Cc1ccc(O)cc1` has an IC50 of 19 nM.
`CCN[C@H](CN[C@H](CN[C@@H](Cc1ccc(O)cc1)CN1CCC[C@H]1CN[C@H](CN[C@H](CN)CCSC)Cc1ccc(O)cc1)Cc1ccc(O)cc1)Cc1ccc(O)cc1` showed an IC50 of 113 nM.
`CCN[C@H](CN[C@H](CN[C@H](CN[C@H](CN[C@@H](CN[C@@H](CN)CO)[C@@H](C)O)Cc1ccccc1)Cc1ccccc1)Cc1ccc(O)cc1)Cc1ccc(O)cc1` showed an IC50 of 90 nM.
`CCN[C@H](CN[C@H](CN[C@@H](Cc1ccc(O)cc1)CN1CCC[C@H]1CN[C@@H](Cc1ccc(O)cc1)CN1CCC[C@H]1CN)Cc1ccc(O)cc1)Cc1ccc(O)cc1` showed an IC50 of 79 nM.
